From PubChem BioAssay AID328 (DTP/NCI, 2004)
Where “and” joins values, the source holds several entries; their conditions need not be identical. Equal values may be shown once. Inconclusive results and toxic doses are left out. Rule for the calls: active = survival T/C of 150% or more; inactive = T/C below 125% in these data. Residues, ends and D or L forms follow the SMILES beside them.

System: BDF1 mice, P388 leukemia ip, median survival T/C
Assay: NCI In Vivo Anticancer Drug Screen. Data for tumor model P388 Leukemia (intraperitoneal) in B6D2F1 (BDF1) mice
Conditions: endpoint: median survival time, higher = longer survival
Method in brief: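 Compound-treated tumour-bearing mice were compared with vehicle-treated controls. Survival was recorded, and the value is the treated-group measurement divided by the control-group measurement (T/C).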

[1] = dose: 100.0 mg/kg/injection, schedule: Q04DX003 (ip), vehicle: saline with Tween-80
[2] = dose: 200.0 mg/kg/injection, schedule: Q04DX003 (ip), vehicle: saline with Tween-80
[3] = dose: 400.0 mg/kg/injection, schedule: Q04DX003 (ip), vehicle: saline with Tween-80
[4] = dose: 100.0 mg/kg/injection, schedule: Q04DX003 (ip), vehicle: Klucel (hydroxypropylcellulose) (HPC)
[5] = dose: 200.0 mg/kg/injection, schedule: Q04DX003 (ip), vehicle: Klucel (hydroxypropylcellulose) (HPC)
[6] = dose: 400.0 mg/kg/injection, schedule: Q04DX003 (ip), vehicle: Klucel (hydroxypropylcellulose) (HPC)
[7] = dose: 100.0 mg/kg/injection, schedule: Q01DX009 (ip), vehicle: saline with Tween-80
[8] = dose: 200.0 mg/kg/injection, schedule: Q01DX009 (ip), vehicle: saline with Tween-80
[9] = dose: 400.0 mg/kg/injection, schedule: Q01DX009 (ip), vehicle: saline with Tween-80

Measured: T/C

CC(SC(C)c1ccccc1)c1ccccc1 (configuration not stated)
inactive: [1] 108 % of control | [2] 108 % of control | [3] 116 % of control

O=[N+]([O-])c1ccc(S(=O)(=O)c2ccccc2)c2c1no[n+]2[O-]
inactive: dose: 10.0 mg/kg/injection, schedule: Q01DX009 (ip), vehicle: saline with Tween-80 109 % of control | dose: 20.0 mg/kg/injection, schedule: Q01DX009 (ip), vehicle: saline with Tween-80 106 % of control | dose: 40.0 mg/kg/injection, schedule: Q01DX009 (ip), vehicle: saline with Tween-80 106 % of control

O=C1CC(c2ccc([N+](=O)[O-])cc2)=Nc2ccccc2N1
inactive: [1] 109 % of control | [2] 104 % of control | [3] 114 % of control

CCOC(=O)C(C(=O)OCC)C1c2ccccc2C(=NO)c2ccccc21 (configuration not stated)
inactive: dose: 100.0 mg/kg/injection, schedule: Q01DX009 (ip), vehicle: Klucel (hydroxypropylcellulose) (HPC) 100 % of control | [4] 112 % of control | dose: 200.0 mg/kg/injection, schedule: Q01DX009 (ip), vehicle: Klucel (hydroxypropylcellulose) (HPC) 109 % of control | [5] 104 % of control | dose: 400.0 mg/kg/injection, schedule: Q01DX009 (ip), vehicle: Klucel (hydroxypropylcellulose) (HPC) 109 % of control | [6] 91 % of control

COc1ccc2c(c1)NC(c1ccccc1C(=O)O)c1cccn1-2 (configuration not stated)
inactive: dose: 6.25 mg/kg/injection, schedule: Q01DX009 (ip), vehicle: saline with Tween-80 90 % of control | dose: 12.5 mg/kg/injection, schedule: Q01DX009 (ip), vehicle: saline with Tween-80 97 % of control | dose: 25.0 mg/kg/injection, schedule: Q01DX009 (ip), vehicle: saline with Tween-80 97 % of control

c1ccc(N2CCNCC2)cc1
inactive: dose: 6.25 mg/kg/injection, schedule: Q04DX003 (ip), vehicle: saline sonified 95 % of control | dose: 12.5 mg/kg/injection, schedule: Q04DX003 (ip), vehicle: saline sonified 100 % of control | dose: 25.0 mg/kg/injection, schedule: Q04DX003 (ip), vehicle: saline sonified 104 % of control

c1ccc(-c2nnc3oc(-c4cccs4)nn23)cc1
inactive: [7] 86 % of control | [8] 90 % of control | [9] 90 % of control

C(/C=C/C=C/Nc1ccc(N=Nc2ccccc2)cc1)=Nc1ccc(N=Nc2ccccc2)cc1
inactive: dose: 100.0 mg/kg/injection, schedule: Q04DX003 (ip), vehicle: saline 90 % of control | dose: 200.0 mg/kg/injection, schedule: Q04DX003 (ip), vehicle: saline 104 % of control | dose: 400.0 mg/kg/injection, schedule: Q04DX003 (ip), vehicle: saline 95 % of control

Cc1ccc(NC(=O)c2ccccc2C(=O)O)cc1Cl
inactive: [4] 95 % of control | [5] 95 % of control | [6] 91 % of control

COc1ccc2nc3cc(Cl)ccc3c(Nc3ccc(O)c(CN(CCCl)CCCl)c3)c2c1
active: dose: 0.5 mg/kg/injection, schedule: Q01DX009 (ip), vehicle: saline 177 % of control | dose: 1.0 mg/kg/injection, schedule: Q01DX009 (ip), vehicle: saline 163 % of control | dose: 1.0 mg/kg/injection, schedule: Q04DX003 (ip), vehicle: saline 159 % of control | dose: 1.33 mg/kg/injection, schedule: Q04DX003 (ip), vehicle: saline 154 % of control | dose: 2.0 mg/kg/injection, schedule: Q04DX003 (ip), vehicle: saline 158 % of control and 181 % of control | dose: 3.0 mg/kg/injection, schedule: Q04DX003 (ip), vehicle: saline 158 % of control and 179 % of control | dose: 4.5 mg/kg/injection, schedule: Q04DX003 (ip), vehicle: saline 195 % of control | dose: 6.7 mg/kg/injection, schedule: Q04DX003 (ip), vehicle: saline 179 % of control | dose: 10.0 mg/kg/injection, schedule: Q04DX003 (ip), vehicle: saline 183 % of control
inactive: dose: 0.06 mg/kg/injection, schedule: Q01DX009 (ip), vehicle: saline with Tween-80 105 % of control | dose: 0.09 mg/kg/injection, schedule: Q01DX009 (ip), vehicle: saline with Tween-80 99 % of control | dose: 0.13 mg/kg/injection, schedule: Q01DX009 (ip), vehicle: saline with Tween-80 89 % of control | dose: 0.22 mg/kg/injection, schedule: Q04DX003 (ip), vehicle: saline 100 % of control | dose: 0.33 mg/kg/injection, schedule: Q04DX003 (ip), vehicle: saline 118 % of control | dose: 2.0 mg/kg/injection, schedule: Q01DX009 (ip), vehicle: saline 104 % of control

CC(C)C(N)C(=O)NC(CO)C(=O)O (stereo not drawn) (H-Val-Ser-OH; configuration not given here)
inactive: dose: 50.0 mg/kg/injection, schedule: Q01DX005 (ip), vehicle: saline 99 % of control | dose: 100.0 mg/kg/injection, schedule: Q01DX005 (ip), vehicle: saline 106 % of control | dose: 200.0 mg/kg/injection, schedule: Q01DX005 (ip), vehicle: saline 92 % of control

Cc1nnc2n1N=C(c1ccc(-c3ccccc3)cc1)CS2
inactive: [1] 104 % of control | [2] 92 % of control | [3] 93 % of control

C[C@]12CC[C@H]3[C@@H](CCC4=CC(=O)CC[C@@H]43)[C@@H]1CC[C@@H]2OC(=O)CCc1ccccc1
inactive: [7] 100 % of control | [1] 86 % of control | [8] 100 % of control | [9] 90 % of control | [3] 86 % of control

C=CCc1c(C)cc(C)c(C)c1O
inactive: dose: 100.0 mg/kg/injection, schedule: Q04DX003 (sc), vehicle: olive oil, sesame oil, peanut oil 96 % of control | dose: 200.0 mg/kg/injection, schedule: Q04DX003 (sc), vehicle: olive oil, sesame oil, peanut oil 92 % of control | dose: 400.0 mg/kg/injection, schedule: Q04DX003 (sc), vehicle: olive oil, sesame oil, peanut oil 92 % of control

COC(=O)C(I)C(OC)c1ccccc1 (configuration not stated)
inactive: [7] 100 % of control | [8] 105 % of control | [9] 110 % of control

Cc1nc2[nH]c(=O)ccc2c(C)c1N
inactive: dose: 100.0 mg/kg/injection, schedule: Q04DX002 (ip), vehicle: saline with Tween-80 92 % of control

CN(C)CC(=O)c1ccc(O)c(O)c1
active: dose: 300.0 mg/kg/injection, schedule: Q01DX010 (ip), vehicle: saline 150 % of control

O=C(O)c1ccc(N2C(=O)C=CC2=O)cc1 (tested in a mixture with another compound)
inactive: dose: 0.39 mg/kg/injection, schedule: Q01DX009 (ip), vehicle: Klucel (hydroxypropylcellulose) (HPC) 95 % of control | dose: 0.78 mg/kg/injection, schedule: Q01DX009 (ip), vehicle: Klucel (hydroxypropylcellulose) (HPC) 108 % of control | dose: 1.25 mg/kg/injection, schedule: Q01DX001 (ip), vehicle: Klucel (hydroxypropylcellulose) (HPC) 100 % of control | dose: 1.56 mg/kg/injection, schedule: Q01DX009 (ip), vehicle: Klucel (hydroxypropylcellulose) (HPC) 95 % of control | dose: 2.5 mg/kg/injection, schedule: Q01DX001 (ip), vehicle: Klucel (hydroxypropylcellulose) (HPC) 104 % of control | dose: 3.12 mg/kg/injection, schedule: Q01DX009 (ip), vehicle: Klucel (hydroxypropylcellulose) (HPC) 110 % of control | dose: 4.6 mg/kg/injection, schedule: Q04DX003 (ip), vehicle: Klucel (hydroxypropylcellulose) (HPC) 95 % of control | dose: 5.0 mg/kg/injection, schedule: Q01DX001 (ip), vehicle: Klucel (hydroxypropylcellulose) (HPC) 104 % of control | dose: 7.0 mg/kg/injection, schedule: Q04DX003 (ip), vehicle: Klucel (hydroxypropylcellulose) (HPC) 95 % of control | dose: 10.0 mg/kg/injection, schedule: Q04DX003 (ip), vehicle: Klucel (hydroxypropylcellulose) (HPC) 100 % of control

COc1cc2c(cc1OC)-c1c(C)c3ccc(OC)c(NCc4ccccc4)c3c[n+]1CC2
inactive: dose: 1.56 mg/kg/injection, schedule: Q04DX003 (ip), vehicle: other 107 % of control | dose: 3.13 mg/kg/injection, schedule: Q04DX003 (ip), vehicle: other 100 % of control | dose: 6.25 mg/kg/injection, schedule: Q04DX003 (ip), vehicle: other 90 % of control
